In patent US7544703B2, “Cyclic compound having 4-pyridylalkylthio group having substituted or unsubstituted amino group introduced therein” (Santen Pharmaceutical Co., Ltd., priority 2004, dated 2009):
Structures can show the parent of a compound that is named as a salt.

Assays:
[1] = tested on: HUVEC (normal human umbilical vein endothelial cells); experiment: VEGF-induced HUVEC proliferation: cell proliferation inhibitory action test; assay type: cell-based; conditions: 72 h, 5 μL of 20 μg/mL test compound solution per well, WST-8 absorbance at 450 nm three days after VEGF addition, read-out: Cell proliferation inhibition rate (%);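 also: each well holds 100 µL cell suspension before compound addition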
In short: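 HUVECs in 0.5% FBS F12K on type I collagen were pretreated 1 h with compound (20 μg/mL solution in PBS from DMSO stock, 5 μL/well), then stimulated with VEGF (400 ng/mL solution). After 3 days at 37 °C, viability was read by WST-8 A450. Inhibition % was calculated against a 1.0% DMSO control, minus cell+medium blank.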

[2] = tested on: adjuvant arthritis models in rats; experiment: Paw edema inhibitory action test using adjuvant arthritis models in rats; assay type: in vivo; conditions: 504 h; Lewis rat, adjuvant-untreated (secondary inflammation) paw, day 21; 10 mg/kg/day oral once a day, day 0 to day 20; average of 8 rats per group; read-out: Paw edema inhibition rate (%)
Method: A paw edema inhibitory action test of the compounds of the present invention was performed using an adjuvant arthritis model in rats, which is one of the widely-used methods of evaluating in vivo antiarthritis effects of drugs.
As one of the widely-used methods of evaluating antiarthritic effects of drugs, a paw edema inhibitory action test using adjuvant arthritis models in rats is known. Accordingly, a paw edema inhibitory action test of the compounds of the present invention was performed, the paw edema inhibition rate was calculated, and the antiarthritic effect of each of the compounds of the present invention was evaluated using the obtained rate as an index.
A 1% aqueous methyl cellulose solution was added to each test compound to suspend it, whereby a 2 mg/mL test compound suspension was prepared.
Liquid paraffin was added to Mycobacterium butyricum to suspend it, whereby 6 mg/mL adjuvant was prepared.
• 1) The adjuvant (0.1 mL) was injected subcutaneously into a left hind paw sole of each rat (male, 9 weeks of age, Lewis rat) to induce arthritis. • 2) From the adjuvant injection day (i.e. on day 0) to day 20, the test compound suspension (10 mg/kg/day) was orally administered once a day consecutively. • 3) On the adjuvant injection day, day 1, day 4, day 7, day 11, day 14, day 18 and day 21, each paw volume of both hind paws was measured with a plethysmometer. • 4) A test was performed in the same manner as in 1) to 3) except that the 1% aqueous methyl cellulose solution was used instead of the test compound suspension, and the result was used as a control. (Method of Evaluation)
Each paw edema inhibition rate of paw edema in an adjuvant-untreated paw (secondary inflammation paw) in each test compound administration group to paw edema in a secondary inflammation paw in a control group was calculated, and the antiarthritic effect of each of the compounds of the present invention was evaluated using the obtained rate as an index.
The paw edema rate was calculated according to the following calculation equation 1, and then the paw edema inhibition rate (the average of 8 rats per group), which was used as an index of the antiarthritic effect, was calculated according to the calculation equation 2. Paw edema rate (%)=(Paw volume after adjuvant treatment/paw volume before adjuvant treatment)×100 (Calculation Equation 1) Paw edema inhibition rate (%)=100−{(Sx−100)/(So−100)}×100 (Calculation Equation 2) So: Paw edema rate of control group Sx: Paw edema rate of test compound suspension administration group (Test Results and Discussion)

Question: For Cc1cc(C)cc(NC(=O)c2cccnc2SCc2ccnc(N)c2)c1 [Compound 3-1, 2-(2-Aminopyridin-4-ylmethylthio)-N-(3,5-dimethylphenyl)pyridine-3-carboxamide monohydrochloride], which inhibition at 20 µg/mL (stock) [1] is on record?
Answer: Its inhibition at 20 µg/mL (stock) is 100%.

Question: And the inhibition in vivo at 10 mg/kg/day [2]?
Answer: The inhibition in vivo at 10 mg/kg/day was 48%.

Question: Which results are given for CC(=O)Nc1cc(CSc2ncccc2C(=O)Nc2ccc(OC(F)(F)F)cc2)ccn1 [Compound 4-11, 2-(2-Acetylaminopyridin-4-ylmethylthio)-N-(4-trifluoromethoxyphenyl)pyridine-3-carboxamide]?
Answer: inhibition at 20 µg/mL (stock) [1]: 93%; inhibition in vivo at 10 mg/kg/day [2]: 65%

Question: Which results are given for CC(=O)Nc1cc(CSc2ncccc2C(=O)Nc2cc(C)cc(C)c2)ccn1 [Compound 4-1, 2-(2-Acetylaminopyridin-4-ylmethylthio)-N-(3,5-dimethylphenyl)pyridine-3-carboxamide]?
Answer: inhibition at 20 µg/mL (stock) [1]: 100%; inhibition in vivo at 10 mg/kg/day [2]: 90%

Question: For CC(=O)OCC(=O)Nc1cc(CSc2ncccc2C(=O)Nc2cc(C)cc(C)c2)ccn1 [Compound 10-1, 2-(2-Acetoxyacetylaminopyridin-4-ylmethylthio)-N-(3,5-dimethylphenyl)pyridine-3-carboxamide], which inhibition at 20 µg/mL (stock) [1] is on record?
Answer: The inhibition at 20 µg/mL (stock) was 100%.

Question: And the inhibition in vivo at 10 mg/kg/day [2]?
Answer: The inhibition in vivo at 10 mg/kg/day was 59%.

Question: CC(=O)Nc1cc(CSc2ncccc2C(=O)Nc2ccc(Cl)cc2)ccn1 [Compound 4-10, 2-(2-Acetylaminopyridin-4-ylmethylthio)-N-(4-chlorophenyl)pyridine-3-carboxamide] was tested. Which inhibition at 20 µg/mL (stock) [1] did it give?
Answer: Its inhibition at 20 µg/mL (stock) is 100%.

Question: And the inhibition in vivo at 10 mg/kg/day [2]?
Answer: The inhibition in vivo at 10 mg/kg/day was 71%.

Question: How did the inhibition at 20 µg/mL (stock) [1] turn out when CNC(=O)Nc1cc(CSc2ncccc2C(=O)Nc2cc(C)cc(C)c2)ccn1 [Compound 9-1, N-(3,5-Dimethylphenyl)-2-[2-(N′-methylureido)pyridin-4-ylmethylthio]pyridine-3-carboxamide] was run?
Answer: Its inhibition at 20 µg/mL (stock) is 100%.

Question: What about the inhibition in vivo at 10 mg/kg/day [2] of the same molecule?
Answer: The inhibition in vivo at 10 mg/kg/day was 55%.

Question: Which inhibition at 20 µg/mL (stock) [1] does the source give for Nc1cc(CSc2ncccc2C(=O)Nc2ccc(OC(F)(F)F)cc2)ccn1 [Compound 3-10, 2-(2-Aminopyridin-4-ylmethylthio)-N-(4-trifluoromethoxyphenyl)pyridine-3-carboxamide] here?
Answer: The inhibition at 20 µg/mL (stock) was 97%.

Question: What about the inhibition in vivo at 10 mg/kg/day [2] of the same molecule?
Answer: Its inhibition in vivo at 10 mg/kg/day is 35%.

Question: What does the source list for O=C(CO)Nc1cc(CSc2ncccc2C(=O)Nc2ccc(OC(F)(F)F)cc2)ccn1 [Compound 12-1, 2-(2-Hydroxyacetylaminopyridin-4-ylmethylthio)-N-(4-trifluoromethoxyphenyl)pyridine-3-carboxamide]?
Answer: inhibition at 20 µg/mL (stock) [1]: 78%; inhibition in vivo at 10 mg/kg/day [2]: 48%

Question: How did the inhibition at 20 µg/mL (stock) [1] turn out when CNc1cc(CSc2ncccc2C(=O)Nc2ccc(OC(F)(F)F)cc2)ccn1 [Compound 3-8, 2-(2-Methylaminopyridin-4-ylmethylthio)-N-(4-trifluoromethoxyphenyl)pyridine-3-carboxamide monohydrochloride] was run?
Answer: The inhibition at 20 µg/mL (stock) was 100%.

Question: And the inhibition in vivo at 10 mg/kg/day [2]?
Answer: The inhibition in vivo at 10 mg/kg/day was 30%.
